Measured values: patent US4605641A, “Synthetic vasoactive intestinal peptide analogs” (Hoffmann-La Roche Inc., priority 1984, dated 1986)
Peptide text beside a SMILES is read from it.

What was measured:
[1] = system: guinea pig trachea smooth muscle; assay: Bronchodilator (relaxant) effect on isolated guinea pig tracheal rings; format: cell-based; conditions: for Relative Potency: guinea pig trachea, relative to VIP = 100%; for EC50: guinea pig tracheal rings, relaxation as % of maximum response to VIP 10^-6 M, three tissues pooled, linear regression, read-out: EC50 (M), agonist activity, bronchodilator effect
Excerpt: The bronchodilatory effect of VIP analogs was studied in a model utilizing guinea pig trachea. Wasserman, M. A. et al. "Comparative In Vitro Tracheal Relaxant Effects of Porcine and Hen VIP" in Vasoactive Intestinal Peptide ed. Said, S.I., Raven Press (New York, 1982).
All tissues were taken from male albino guinea pigs weighing 400-600 g, anesthetized with urethane 2 g/kg i.p. After exsanguination the trachea was removed and divided into four ring segments (3 mm length). Each ring was suspended by two 30 guage stainless steel wires in a 10 ml jacket tissue bath and attached via 4-0 silk thread to a Grass force displacement transducer (model FT03C, Grass Instrument Co., Quincy, MA), for isometric recording of tension. The smooth muscle was bathed in modified Krebs solution of the following composition: NaCl, 120 mM; KCl, 4.7 mM; CaCl2, 2.5 mM; MgSO4.7H2 O; 1.2 mM; NaHCO3, 25 mM; KH2 PO4 monobasic, 1.2 mM; and dextrose, 10 mM. Tissue baths were maintained at 37.5° C. and constantly bubbled with 95% O2 and 5% CO2. Responses were recorded on an 8 channel and 4 channel Hewlett-Packard (model 7702B and 7754A, respectively) recorder (Hewlett Packard, Paramus, NJ). Tracheal rings were placed under a resting tension of 1.5 g which was determined to be at or near optimal in preliminary experiments. Frequent readjustments of tension were required during the 60 min. stabilization period which followed. Tissues were rinsed at 15 min. intervals.
(§1) Cumulative concentration response curves were obtained for each tissue by successive […] in the bath concentration of VIP or potential VIP agonists according to the method of VanRossum J. M., Arch. Int Pharmacodyn, 143, 299-330 (1963). Only one cummulative dose response curve was obtained on a single piece of tissue. To minimize variability between tissues, relaxant responses are expressed as a percentage of the maximum response obtainable to VIP (10^-6 M=100%) added at the end of the concentration response curve. Responses obtained from three tissues were pooled and EC50 values were determined by linear regression.

[2] = system: Human Bronchial Smooth Muscle; assay: Relaxation of isolated human bronchial smooth muscle rings; format: cell-based; conditions: for Rel. Potency: human bronchial smooth muscle, relative to VIP (1-28) = 100%
Method: Human bronchial smooth muscle or intra-pulmonary arteries were obtained from surgical section or autopsy from Overlook Hospital, Summit, N.J. Airway or vascular rings were suspended by two 30 gauge stainless steel wires in a 10 ml jacket tissue bath and attached via 4-0 silk thread to a Grass forcer displacement transducer (model FT030C, Grass Instrument Co., Quincy, MA), for isometric recording of tension. The smooth muscle was bathed in modified Kreb's solution of the following composition: NaCl, 120 mM; KCl, 4.7 mM; CaCL2, 2.5 mM; MgSO4.7H2 O; 1.2 mM; NaHCO3, 25 mM; KH2 PO4 monobasic, 1.2 mM; and dextrose, 10 mM. Tissue baths were maintained at 37.5° C. and constantly bubbled with 95% O2 and 5% CO2. Responses were recorded on a 8 channel and 4 channel Hewlett-Packard (model 7702B and 7754A, respectively) recorder (Hewlett Packard, Paramus, NJ). All tissues were placed under a resting tension (airway, 1.5 g; vascular, 1 g) which was determined to be near optimal in preliminary experiments. Frequent readjustments of tension were required during the 120-180 min. stabilization period which followed. Tissues were rinsed at 15 min. intervals. Vascular tissues were primed once with phenylephrine (10^-5 M) and washed for an additional hour. Steady state contractions of vacular tissues were obtained with phenylephrine (10^-5 M) while airway tissues were precontracted with histamine (3×10^-4 M).
as §1, with “noted above.” for “J. M., Arch. Int Pharmacodyn, 143, 299-330 (1963).”, “cumulative” for “cummulative”, “were” for “are”, “papaverine (vascular, 10^-4 M=100%) or isoproterenol (airway, 10^-4” for “VIP (10^-6”, “curve. […]” for “curve.”, “four” for “three”

EC50 [1] [M] | Compound | Relative Potency [1] [%] | Rel. Potency [2] [%] | Bronchodilator / relaxant activity (in words) ([2]; human in vitro tissue, summary of Table II)
9e-09 | CCCC[C@H](NC(=O)[C@H](CCC(N)=O)NC(=O)[C@H](CCCCN)NC(=O)[C@H](CCCNC(=N)N)NC(=O)[C@H](CC(C)C)NC(=O)[C@H](CCCNC(=N)N)NC(=O)[C@@H](NC(=O)[C@H](Cc1ccc(O)cc1)NC(=O)[C@H](CC(N)=O)NC(=O)[C@H](CC(=O)O)NC(=O)[C@@H](NC(=O)[C@H](Cc1ccccc1)NC(=O)[C@@H](NC(=O)[C@H](C)NC(=O)[C@H](CC(=O)O)NC(=O)[C@H](CO)NC(=O)[C@H](Cc1c[nH]cn1)NC(C)=O)C(C)C)[C@@H](C)O)[C@@H](C)O)C(=O)N[C@@H](C)C(=O)N[C@H](C(=O)N[C@@H](CCCCN)C(=O)N[C@@H](CCCCN)C(=O)N[C@@H](Cc1ccc(O)cc1)C(=O)N[C@@H](CC(C)C)C(=O)N[C@@H](CC(N)=O)C(=O)N[C@@H](CO)C(=O)N[C@H](C(=O)N[C@@H](CC(C)C)C(=O)N[C@@H](CC(N)=O)C(N)=O)[C@@H](C)CC)C(C)C [Ac--(Nle^17)--VIP, Ac-(Nle^17)VIP] | 111 | 2800 | –
3.8e-09 | CCCC[C@H](NC(=O)[C@H](CCC(N)=O)NC(=O)[C@H](CCCCN)NC(=O)[C@H](CCCNC(=N)N)NC(=O)[C@H](CC(C)C)NC(=O)[C@H](CCCCN)NC(=O)[C@@H](NC(=O)[C@H](Cc1ccc(O)cc1)NC(=O)[C@H](CC(N)=O)NC(=O)[C@H](CC(=O)O)NC(=O)[C@@H](NC(=O)[C@H](Cc1ccccc1)NC(=O)[C@@H](NC(=O)[C@H](C)NC(=O)[C@H](CC(=O)O)NC(=O)[C@H](CO)NC(=O)[C@@H](N)Cc1c[nH]cn1)C(C)C)[C@@H](C)O)[C@@H](C)O)C(=O)N[C@@H](C)C(=O)N[C@H](C(=O)N[C@@H](CCCCN)C(=O)N[C@@H](CCCCN)C(=O)N[C@@H](Cc1ccc(O)cc1)C(=O)N[C@@H](CC(C)C)C(=O)N[C@@H](CC(N)=O)C(=O)N[C@@H](CO)C(=O)N[C@H](C(=O)N[C@@H](CC(C)C)C(=O)N[C@@H](CC(N)=O)C(N)=O)[C@@H](C)CC)C(C)C [(Lys^12, Nle^17)--VIP, (Lys^12, Nle^17)-VIP] (HELM PEPTIDE1{H.S.D.A.V.F.T.D.N.Y.T.K.L.R.K.Q.[Nle].A.V.K.K.Y.L.N.S.I.L.N.[am]}$$$$V2.0) | 263 | 165 | –
6.4e-09 | CCCC[C@H](NC(=O)[C@H](CCC(N)=O)NC(=O)[C@H](CCCCN)NC(=O)[C@H](CCCNC(=N)N)NC(=O)[C@H](CC(C)C)NC(=O)[C@H](CCCNC(=N)N)NC(=O)[C@@H](NC(=O)[C@H](Cc1ccc(O)cc1)NC(=O)[C@H](CC(N)=O)NC(=O)[C@H](CC(=O)O)NC(=O)[C@@H](NC(=O)[C@H](Cc1ccccc1)NC(=O)[C@@H](NC(=O)[C@H](C)NC(=O)[C@H](CC(=O)O)NC(=O)[C@H](CO)NC(=O)[C@@H](N)Cc1c[nH]cn1)C(C)C)[C@@H](C)O)[C@@H](C)O)C(=O)N[C@@H](C)C(=O)N[C@H](C(=O)N[C@@H](CCCCN)C(=O)N[C@@H](CCCCN)C(=O)N[C@@H](Cc1ccc(O)cc1)C(=O)N[C@@H](CC(C)C)C(=O)N[C@@H](CC(N)=O)C(=O)N[C@@H](CO)C(=O)N[C@H](C(=O)N[C@@H](CC(C)C)C(=O)N[C@@H](CC(N)=O)C(N)=O)[C@@H](C)CC)C(C)C [(Nle^17)--VIP, (Nle^17)VIP] | 156 | 215 | –
5e-09 | CCCC[C@H](NC(=O)[C@H](CCC(N)=O)NC(=O)[C@H](CCCCN)NC(=O)[C@H](CCCNC(=N)N)NC(=O)[C@H](CC(C)C)NC(=O)[C@H](CCCN)NC(=O)[C@@H](NC(=O)[C@H](Cc1ccc(O)cc1)NC(=O)[C@H](CC(N)=O)NC(=O)[C@H](CC(=O)O)NC(=O)[C@@H](NC(=O)[C@H](Cc1ccccc1)NC(=O)[C@@H](NC(=O)[C@H](C)NC(=O)[C@H](CC(=O)O)NC(=O)[C@H](CO)NC(=O)[C@@H](N)Cc1c[nH]cn1)C(C)C)[C@@H](C)O)[C@@H](C)O)C(=O)N[C@@H](C)C(=O)N[C@H](C(=O)N[C@@H](CCCCN)C(=O)N[C@@H](CCCCN)C(=O)N[C@@H](Cc1ccc(O)cc1)C(=O)N[C@@H](CC(C)C)C(=O)N[C@@H](CC(N)=O)C(=O)N[C@@H](CO)C(=O)N[C@H](C(=O)N[C@@H](CC(C)C)C(=O)N[C@@H](CC(N)=O)C(N)=O)[C@@H](C)CC)C(C)C [(Orn^12, Nle^17)--VIP, (Orn^12, Nle^17)VIP] | 200 | 195 | –

Compound | EC50 [1] [M] | Relative Potency [1] [%] | Rel. Potency [2] [%] | Bronchodilator / relaxant activity (in words) ([2]; human in vitro tissue, summary of Table II)
CC[C@H](C)[C@H](NC(=O)[C@H](CO)NC(=O)[C@H](CC(N)=O)NC(=O)[C@H](CC(C)C)NC(=O)[C@H](Cc1ccc(O)cc1)NC(=O)[C@H](CCCCN)NC(=O)[C@H](CCCCN)NC(=O)[C@@H](NC(=O)[C@H](C)NC(=O)[C@H](CCSC)NC(=O)[C@H](CCC(N)=O)NC(=O)[C@H](CCCCN)NC(=O)[C@H](CCCNC(=N)N)NC(=O)[C@H](CC(C)C)NC(=O)[C@H](CCCNC(=N)N)NC(=O)[C@@H](NC(=O)[C@H](Cc1ccc(O)cc1)NC(=O)[C@H](CC(N)=O)NC(=O)[C@H](CC(=O)O)NC(=O)[C@@H](NC(=O)[C@H](Cc1ccccc1)NC(=O)[C@@H](NC(=O)[C@H](C)NC(=O)[C@H](CC(=O)O)NC(=O)[C@H](CO)NC(=O)[C@@H](N)Cc1c[nH]cn1)C(C)C)[C@@H](C)O)[C@@H](C)O)C(C)C)C(=O)N[C@@H](CC(C)C)C(=O)N[C@@H](CC(N)=O)C(N)=O [VIP, Vasoactive intestinal peptide] | 1e-08 | 100 | 100 | weak relaxant
